Article PMC6145916, “Interaction of mitochondrial fission factor with dynamin related protein 1 governs physiological mitochondrial function in vivo” (Scientific Reports, 2018)
Where no end group is shown, it is not given here.

Assays:
[1] = system: neuroblastoma SH-SY5Y cells; assay: Mitochondrial morphology (Tom20 immunofluorescence), SH-SY5Y; assay type: cell-based, human
Procedure: Represented Western blot is cropped from a full blot shown in the Expanded Western Blots section of the Supplementary Information. […] Hoechst 33342 is shown in blue and Tom20 in green (n = 3, 10 images each). Below, quantification of the form factor (degree of branching) and major axis length (length of mitochondria). At least 6,000 mitochondrial fragments were measured for each condition. Mitochondrial reactive oxygen species (ROS) production (MitoSox Red) (c) and mitochondrial membrane potential (TMRM) (d) after overnight treatment with indicated concentrations of peptide or FCCP. Data are from 3 independent experiments per condition normalized to the average no peptide value. (e) Relative mitochondrial ROS (MitoSox Red) signal in GFP positive cells expressing full-length or alanine-substituted P259 at indicated amino acids after two days of transfection. Values are normalized to a GFP empty vector (n = 3, with 3 replicates). […] Data are mean ± s.e. […]
Cells were fixed onto Permanox plastic slides with 4% paraformaldehyde in PBS for 10 minutes at room temperature. Cells were permeabilized in 0.1% Triton X-100 and 1% normal goat serum (blocking buffer) for one hour at room temperature. Permeabilized cells were incubated overnight with primary anti-Tom20 antibody (Santa Cruze Biotech, sc-11415, 1:250 dilution) in a humidified chamber. Slides were subsequently incubated with FITC-conjugated goat anti-rabbit IgG for two hours at room temperature in a light-shielding humidified chamber. Cells were washed with blocking buffer and stained with Hoechst 33342 (Invitrogen, OR, USA, […]). Coverslips were mounted with a Slowfade antifade solution (Invitrogen, OR, USA). Images were acquired using an LSM 700 confocal laser-s canning microsc ope equipped with a Plan Apochromat 63x/1.4 NA oil-immersion objective (Zeiss).
Mitochondrial morphology analysis
High-throughput image analysis of mitochondrial morphology was performed using MATLAB with the Image Processing toolkit. Background illumination, obtained by morphological opening of the image, was subtracted from the original image. The image was then passed through a top - hat transformation to highlight objects from the background followed by a pixel-wis e adaptive low-pas s Wiener filter to remove noise. A 90th percentile threshold was used to convert the image to a binary image. Erroneously large and small objects were removed from the image and morphological features were extracted from the binary objects. Major axis length is defined as th e length of the longest line that can be drawn through a binary object while the minor axis length is defined as the length of the shortest line. The aspect ratio is defined by the major axis length divided by the minor axis length. […]

[2] = system: Mff-Drp1 interaction; assay: Co-immunoprecipitation of Drp1 and Mff from SH-SY5Y cell lysate; assay type: cell-based, human; settings: 1 µM, 1 hour, relative to TAT-carrier control; n = 3, with 2 replicates
[3] = system: wild-type MEFs; assay: Mitochondrial ROS (MitoSox), WT MEFs; assay type: cell-based, mouse; settings: 4 µM P259 daily for three days, vs no peptide; 3 independent experiments, three technical replicates; *** p <0.001
Text: Data are of 3 independent experiments with the whiskers calculated by the Turkey method. e. […]
production in an Mff -dependent manner. Mitochondrial reactive oxygen species production […]
treatment in each cell line. […]
determined by an unpaired, two -tailed t test). g. […]
control (no peptide treatment). Data are mean ± s.e. from 3 independent experiments.
Mitochondrial reactive oxygen species determination […]
and 1% penicillin-streptomycin solution (Corning, NY, USA). […]
and without phenol red. […] After incubation
HEPES, and without phenol red. […]
epifluorescence microscope with a 10X objective (Keyence). The Cy5 filter (Keyence) was used to autofocus on the mitochondria plane. […]
calculated as the average MitoSox signal per cell. […]

[4] = system: fission and fusion proteins; assay: Expression of fission and fusion proteins, mitochondrial content and mitophagy in brain of wild-type mice; assay type: in vivo, mouse; settings: 3 mg/Kg/day, subcutaneous osmotic pump, 8 weeks, WT mice
Procedure: Five-week old R6/2 HD mice and their wild-type littermates (a total of 60 mice) were implanted subcutaneously with a 28-d Alzet osmotic pump with either P259-TAT or TAT control peptide (15 mice per group) to be delivered continuously at a rate of 3 mg/Kg/day, as previously described. All mice were implanted twice for a total of an 8-week treatment. 20 of the WT mice were implanted 3 times for a total of a 12-week treatment at 3 mg/Kg/day. All the experiments were in accordance with protocols approved by the Institutional Animal Care and Use Committee of Stanford University and were performed based on the National Institutes of Health Guide for the Care and Use of Laboratory Animals. All methods were carried out in accordance with the relevant guidelines and regulations. […]
membrane in brains of wild-type mice, while not affecting expression levels of other fission and fusion machinery proteins. Total lysate (a,c) and mitochondrial fraction (b) from brain […]
Represented western blots are cropped from full blots shown in the Expanded Western Blots section of the Supplementary Information. […]
Supplementary Figure 4. Principal component analysis of behaviors from wild-type mice treated with P259. a. The top 20% of behaviors collected from wild-type mice treated with 3 […]
ANOVA F- and mutual information scores for each behavior (week designation corresponds to mouse age when the behavior was observed). b. The eigenvector of the first principal component, representing 42% of the variation of the data. […]
finally washed three times with RIPA buffer. Finally, beads were resuspended in 20 µL of Laemmli […]
The effect of peptides on GTPase activity of Drp1 was measured by incubating recombinant Drp1 […]
for 1 hour at 37 °C. GTPase activity was measured using a colorimetric GTPase assay kit (Novus Biologicals, CO, USA) as instructed by the manufacturer. […]

[5] = 4 µM TAT-P259, 30-minute treatment, vs TAT, n = 3

“YGRKKRRQRRRGSGIIQLPEIVVV-NH2 (C-terminus assumed) [P259]” was tested, and the “form factor (degree of branching)” value [1, 5] was “higher form factors”, the major axis length [1, 5] was “increased major axis lengths” and the mitochondrial morphology ([1]; 4 µM TAT-P259 or 10 µM Mdivi-1, 30-minute treatment, n = 3, 10 images each) was “more elongated and branched mitochondria”. The “Mff-Drp1 interactions (co-IP)” value [2] was “significant reduction in Mff-Drp1 interactions”, the “mitochondrial ROS production, WT MEFs” value [3] was “increases mitochondrial ROS” and the “expression levels of both fission and fusion proteins” value [4] was “no effect”. For the same substance, the mitophagy [4] was “no effect” and the overall mitochondrial content [4] was “no effect”.
